# According to patent publication US10933056B2, “3-(1H-pyrazol-4-yl)pyridine allosteric modulators of the M4 muscarinic acetylcholine receptor” (Merck Sharp & Dohme Corp., priority 2015, dated 2021):
# Target: T1, human M4 muscarinic acetylcholine receptor (Homo sapiens, UniProt P08173)
# T1 construct: expressed in transfected cells; host or cells: CHO-K1
# T1 sequence (P08173 1-479): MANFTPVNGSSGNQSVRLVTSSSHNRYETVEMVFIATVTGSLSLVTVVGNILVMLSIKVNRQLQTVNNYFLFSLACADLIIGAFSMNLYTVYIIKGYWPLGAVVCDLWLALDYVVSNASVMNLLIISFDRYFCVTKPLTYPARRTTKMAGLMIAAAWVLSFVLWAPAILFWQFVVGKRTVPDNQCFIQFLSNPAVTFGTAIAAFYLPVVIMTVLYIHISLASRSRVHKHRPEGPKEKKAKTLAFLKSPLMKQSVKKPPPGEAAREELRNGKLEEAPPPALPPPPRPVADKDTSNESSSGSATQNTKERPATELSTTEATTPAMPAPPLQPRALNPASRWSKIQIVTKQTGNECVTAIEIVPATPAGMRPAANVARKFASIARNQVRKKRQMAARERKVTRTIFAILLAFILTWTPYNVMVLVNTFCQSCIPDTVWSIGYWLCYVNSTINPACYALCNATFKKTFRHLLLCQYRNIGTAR
# Assay: human FLIPR-based M4 PAM assay (calcium mobilization in CHO-K1 cells with human M4 receptor and Gαqi5)
# Format: cell-based
# Conditions: inflection point of dose response curve, acetylcholine at 20% of maximum response, FLIPR Tetra, read-out: M4 PAM IP
# Protocol: (§1) In a typical experiment the M4 muscarinic acetylcholine receptor modulating activity of the compounds of the present invention was determined in accordance with the following experimental method. CHO-K1 cells stably transfected with human M4 receptor and chimeric G-protein Gαqi5 (Coward P, et al., Analytical Biochemistry, 270:242-248 (1999)) are thawed from liquid N2 storage, resuspended in growth medium, plated in black, clear bottom 384 well plates, and incubated 16-20 hours at 37° C., 5% CO2. On the day of assay, growth medium is removed, the cells are washed 2 times with wash buffer, and cells are incubated in dye loading buffer at 37° C., 5% CO2 for ˜1 hour. Following dye loading the cell plates are placed in a FLIPR Tetra instrument and while monitoring dye fluorescence (excitation […]), 10 uL of test substance at increasing concentrations is added, and fluorescence values are recorded for 4 min. Next, 10 uL of acetylcholine is added (final concentration calculated so as to achieve 20% of the maximum acetycholine response), and the fluorescence reading is continued for 3.5 min. In some cases, a third addition of acetylcholine (final concentration calculated to achieve 70% of the maximal acetylcholine response) is performed. The resulting dose response curves are fit to a 4 parameter logistic equation and the final result is determined as the inflection point (IP) of the curve
# as §1, with “CHO-K1” for “In a typical experiment the M4 muscarinic acetylcholine receptor modulating activity of the compounds of the present invention was determined in accordance with the following experimental method. CHO-K1”, “Gαqi5” for “Gαqi5 (Coward P, et al., Analytical Biochemistry, 270:242-248 (1999))”, “performed.” for “performed. The resulting dose response curves are fit to a 4 parameter logistic equation and the final result is determined as the inflection point (IP) of the curve”
row,Compound,EC50
1,"Cc1ccc(-c2cnn(CC3(C)CCCC3)c2)c(-c2ccc3c(c2)C(=O)N(C)C3)n1 [Example 27, 2-methyl-6-(6-methyl-3-(1-((1-methylcyclopentyl)methyl)-1H-pyrazol-4-yl)pyridin-2-yl)isoindolin-1-one]",11 nM
2,"Cc1ccc(-c2cnn(CC3(C)CCCC3)c2)c(-c2ccc3c(c2)C(=O)N(C2CC2)C3)n1 [Example 28, 2-cyclopropyl-6-(6-methyl-3-(1-((1-methylcyclopentyl)methyl)-1H-pyrazol-4-yl)pyridin-2-yl)isoindolin-1-one]",10 nM
3,"CC1(Cn2cc(-c3c(F)ccnc3-c3ccc4c(c3)C(=O)N(CC3CC3)C4)cn2)CCCC1 [Example 29, 2-(cyclopropylmethyl)-6-(4-fluoro-3-(1-((1-methylcyclopentyl)methyl)-1H-pyrazol-4-yl)pyridin-2-yl)isoindolin-1-one]",13 nM
4,"Cc1ccc(-c2cnn(CC3(C)CCCC3)c2F)c(-c2ccc3c(c2)C(=O)N(CC2CC2)C3)n1 [Example 30, 2-(cyclopropylmethyl)-6-(3-(5-fluoro-1-((1-methylcyclopentyl)methyl)-1H-pyrazol-4-yl)-6-methylpyridin-2-yl)isoindolin-1-one]",18 nM
5,"CN1Cc2ccc(-c3nccc(C#N)c3-c3cnn(CC4(C)CCCC4)c3)cc2C1=O [Example 31, 2-(2-methyl-3-oxoisoindolin-5-yl)-3-(1-((1-methylcyclopentyl)methyl)-1H-pyrazol-4-yl)isonicotinonitrile]",74 nM
6,"CC1(Cn2cc(-c3ccc(C#N)nc3-c3ccc4c(c3)C(=O)N(CC3CC3)C4)cn2)CCCC1 [Example 32, 6-(2-(cyclopropylmethyl)-3-oxoisoindolin-5-yl)-5-(1-((1-methylcyclopentyl)methyl)-1H-pyrazol-4-yl)picolinonitrile]",7 nM
7,"CC1(Cn2cc(-c3ccc(C#N)nc3-c3ccc4c(c3)C(=O)N(C3CC3)C4)cn2)CCCC1 [Example 33, 6-(2-cyclopropyl-3-oxoisoindolin-5-yl)-5-(1-((1-methylcyclopentyl)methyl)-1H-pyrazol-4-yl)picolinonitrile]",7 nM
8,"CC1(Cn2cc(-c3ccc(C#N)nc3-c3ccc4c(c3)C(=O)NC4)cn2)CCCC1 [Example 34, 5-(1-((1-methylcyclopentyl)methyl)-1H-pyrazol-4-yl)-6-(3-oxoisoindolin-5-yl)picolinonitrile]",15 nM
9,"COC(=O)CN1Cc2ccc(-c3nc(C#N)ccc3-c3cnn(CC4(C)CCCC4)c3)cc2C1=O [Example 34A, methyl 2-(6-(6-cyano-3-(1-((1-methylcyclopentyl)-methyl)-1H-pyrazol-4-yl)pyridin-2-yl)-1-oxoisoindolin-2-yl)acetate]",44 nM
10,"CC1(Cn2cc(-c3ccc(F)nc3-c3ccc4c(c3)C(=O)N(C3CC3)C4)cn2)CCCC1 [Example 35, 2-cyclopropyl-6-(6-fluoro-3-(1-((1-methylcyclopentyl)methyl)-1H-pyrazol-4-yl)pyridin-2-yl)isoindolin-1-one]",9 nM
11,"CN1Cc2ccc(-c3nc(F)ccc3-c3cnn(CC4(C)CCCC4)c3)cc2C1=O [Example 36, 6-(6-fluoro-3-(1-((1-methylcyclopentyl)methyl)-1H-pyrazol-4-yl)pyridin-2-yl)-2-methylisoindolin-1-one]",6 nM
12,"CC1(Cn2cc(-c3ccc(F)nc3-c3ccc4c(c3)C(=O)NC4)cn2)CCCC1 [Example 37, 6-(6-fluoro-3-(1-((1-methylcyclopentyl)methyl)-1H-pyrazol-4-yl)pyridin-2-yl)isoindolin-1-one]",7 nM
13,"Cc1cc(-c2cnn(CC3(C)CCCC3)c2)c(-c2ccc3c(c2)C(=O)N(C)C3)nc1Cl [Example 38, 6-(6-chloro-5-methyl-3-(1-((1-methylcyclopentyl)methyl)-1H-pyrazol-4-yl)pyridin-2-yl)-2-methylisoindolin-1-one]",33 nM
14,"CN1Cc2ccc(-c3nc4c(cc3-c3cnn(CC5(C)CCCC5)c3)CCC4)cc2C1=O [Example 39, 2-methyl-6-(3-(1-((1-methylcyclopentyl)methyl)-1H-pyrazol-4-yl)-6,7-dihydro-5H-cyclopenta[b]pyridin-2-yl)isoindolin-1-one]",37 nM
15,"CC1(Cn2cc(-c3cc4c(nc3-c3cnc5c(c3)C(=O)NC5)[C@H](F)CC4)cn2)CCCC1 [Example 39A, (R)-3-(7-fluoro-3-(1-((1-methylcyclopentyl)methyl)-1H-pyrazol-4-yl)-6,7-dihydro-5H-cyclopenta[b]pyridin-2-yl)-6,7-dihydro-5H-pyrrolo[3,4-b]pyridin-5-one]",58 nM
16,"CC1(Cn2cc(-c3cc4c(nc3-c3cnc5c(c3)C(=O)NC5)[C@@H](F)CC4)cn2)CCCC1 [Example 39B, (S)-3-(7-fluoro-3-(1-((1-methylcyclopentyl)methyl)-1H-pyrazol-4-yl)-6,7-dihydro-5H-cyclopenta[b]pyridin-2-yl)-6,7-dihydro-5H-pyrrolo[3,4-b]pyridin-5-one]",25 nM
17,"Cc1cc(-c2cnn(CC3(C)CCCC3)c2)c(-c2ccc3c(c2)C(=O)NC3)nc1Cl [Example 40, 6-(6-chloro-5-methyl-3-(1-((1-methylcyclopentyl)methyl)-1H-pyrazol-4-yl)pyridin-2-yl)isoindolin-1-one]",49 nM
18,"CN1Cc2ccc(-c3nc(CO)c(F)cc3-c3cnn(CC4(C)CCCC4)c3)cc2C1=O [Example 41, 6-(5-fluoro-6-(hydroxymethyl)-3-(1-((1-methylcyclopentyl)methyl)-1H-pyrazol-4-yl)pyridin-2-yl)-2-methylisoindolin-1-one]",64 nM
19,"CC1(Cn2cc(-c3ccc(C#N)nc3-c3ccc4c(c3)C(=O)N(CCF)C4)cn2)CCCC1 [Example 42, 6-(2-(2-fluoroethyl)-3-oxoisoindolin-5-yl)-5-(1-((1-methylcyclopentyl)methyl)-1H-pyrazol-4-yl)picolinonitrile]",37 nM
20,"CN1Cc2ccc(-c3nc(C#N)ccc3-c3cnn(CC4(C)CCCC4)c3F)cc2C1=O [Example 43, 5-(5-fluoro-1-((1-methylcyclopentyl)methyl)-1H-pyrazol-4-yl)-6-(2-methyl-3-oxoisoindolin-5-yl)picolinonitrile]",20 nM
21,"CC1(Cn2ncc(-c3ccc(C#N)nc3-c3ccc4c(c3)C(=O)NC4)c2F)CCCC1 [Example 43A, 5-(5-fluoro-1-((1-methylcyclopentyl)methyl)-1H-pyrazol-4-yl)-6-(3-oxoisoindolin-5-yl)picolinonitrile]",26 nM
22,"CC1(Cn2ncc(-c3ccc(C#N)nc3-c3ccc4c(c3)C(=O)N(C3CC3)C4)c2F)CCCC1 [Example 44, 6-(2-cyclopropyl-3-oxoisoindolin-5-yl)-5-(5-fluoro-1-((1-methylcyclopentyl)methyl)-1H-pyrazol-4-yl)picolinonitrile]",54 nM
23,"CC1(Cn2ncc(-c3ccc(C#N)nc3-c3ccc4c(c3)C(=O)N(CC3CC3)C4)c2F)CCCC1 [Example 45, 6-(2-(cyclopropylmethyl)-3-oxoisoindolin-5-yl)-5-(5-fluoro-1-((1-methylcyclopentyl)methyl)-1H-pyrazol-4-yl)picolinonitri1e]",41 nM
24,"CN1Cc2ccc(-c3nc(C#N)c(F)cc3-c3cnn(CC4(C)CCCC4)c3)cc2C1=O [Example 47, 3-fluoro-6-(2-methyl-3-oxoisoindolin-5-yl)-5-(1-((1-methylcyclopentyl)methyl)-1H-pyrazol-4-yl)picolinonitrile]",20 nM
25,"CC1(Cn2cc(-c3cc(F)c(C#N)nc3-c3ccc4c(c3)C(=O)N(CC3CC3)C4)cn2)CCCC1 [Example 48, 6-(2-(cyclopropylmethyl)-3-oxoisoindolin-5-yl)-3-fluoro-5-(1-((1-methylcyclopentyl)methyl)-1H-pyrazol-4-yl)picolinonitrile]",76 nM
26,"CC1(Cn2cc(-c3cc4c(nc3-c3ccc5c(c3)C(=O)N(CCF)C5)CCC4)cn2)CCCC1 [Example 49, 2-(2-fluoroethyl)-6-(3-(1-((1-methylcyclopentyl)methyl)-1H-pyrazol-4-yl)-6,7-dihydro-5H-cyclopenta[b]pyridin-2-yl)isoindolin-1-one]",32 nM
